# Starred links: 1 amine or outer side, 2 acyl side, 3 side chain; linkers in the order of their positions; H or OH if unused. Non-standard residues stand in square brackets, D forms with d. Residues, ends and D or L forms follow the SMILES beside them. Groups on a side chain read outwards from the residue. *: point of attachment. C20 diacid = O=C(O)CCCCCCCCCCCCCCCCCCC(=O)*; C18 diacid = O=C(O)CCCCCCCCCCCCCCCCC(=O)*; γGlu = O=C(O)[C@H](CCC(=O)[*:2])N[*:1]; αMeF = C[C@](N)(Cc1ccccc1)C(=O)O; AEEA = NCCOCCOCC(=O)O; Aib = CC(C)(N)C(=O)O
# Target: T1, human GLP-1 receptor (hGLP-1R) (Homo sapiens, UniProt P43220)
# T1 construct: expressed in transfected cells; host or cells: CHO
# Assay: cAMP production (HTRF) in CHO cells expressing human GLP-1 receptor
# Type: cell-based
# Settings: Table 6; % GLP-1R activity relative to GLP-1 / % GlucR activity relative to glucagon
# Description: Cells were re-suspended in assay buffer at a batch-dependent optimized concentration (typically hGLP-1R cells at 1×10^5 cells/mL, hGCGR cells at 2×10^5 cells/mL).
# Cells were added to the assay plate using a multidrop dispenser and incubated at room temperature for 30 minutes before measuring the cAMP level using a cAMP dynamic 2 homogeneous time resolved Fluorescence (HTRF) kit (Cisbio Bioassays #62AM4PEJ) following the two-step protocol as per manufacturer's recommendations. In brief, anti-cAMP cryptate (donor fluorophore) and cAMP-d2 (acceptor fluorophore) were made up separately by diluting each 1 in 20 in conjugate and lysis buffer provided in the kit. Anti-cAMP cryptate was added to all wells of the assay plate, followed by cAMP-d2 added to all wells except non-specific binding (NSB) wells (to which conjugate and lysis buffer was added).
# Data was transformed to % Delta F as described in the manufacturer's guidelines and analyzed by 4-parameter logistic fit to determine EC50 values.
# T1 sequence (P43220 24-463): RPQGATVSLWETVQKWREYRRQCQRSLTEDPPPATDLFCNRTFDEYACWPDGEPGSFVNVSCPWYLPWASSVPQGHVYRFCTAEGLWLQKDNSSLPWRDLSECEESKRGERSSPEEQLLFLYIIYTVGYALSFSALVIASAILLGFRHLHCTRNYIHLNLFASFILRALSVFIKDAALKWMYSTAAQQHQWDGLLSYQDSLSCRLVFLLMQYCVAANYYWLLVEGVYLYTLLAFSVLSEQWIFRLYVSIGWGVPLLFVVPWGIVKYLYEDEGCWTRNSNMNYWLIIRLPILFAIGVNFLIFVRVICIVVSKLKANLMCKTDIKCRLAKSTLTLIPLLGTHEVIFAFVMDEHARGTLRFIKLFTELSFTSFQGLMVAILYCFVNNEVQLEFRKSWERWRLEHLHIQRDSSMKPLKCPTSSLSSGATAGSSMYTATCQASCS
row,Compound,% Relative Potency Ratio
1,CC(C)C[C@H](NC(=O)[C@H](Cc1c[nH]c2ccccc12)NC(=O)[C@H](CCC(N)=O)NC(=O)[C@@H](NC(=O)[C@H](Cc1ccccc1)NC(=O)[C@H](CC(=O)O)NC(=O)[C@H](CCCNC(=N)N)NC(=O)[C@H](C)NC(=O)[C@H](CCCNC(=N)N)NC(=O)[C@H](CCCCNC(=O)COCCOCCNC(=O)COCCOCCNC(=O)CC[C@H](NC(=O)CCCCCCCCCCCCCCCCC(=O)O)C(=O)O)NC(=O)[C@@H](NC(=O)[C@H](CCC(=O)O)NC(=O)[C@H](CC(C)C)NC(=O)[C@](C)(Cc1ccccc1)NC(=O)[C@H](CCCCN)NC(=O)[C@H](CO)NC(=O)[C@@H](NC(=O)[C@H](CC(=O)O)NC(=O)[C@H](CO)NC(=O)[C@@H](NC(=O)[C@H](Cc1ccccc1)NC(=O)[C@@H](NC(=O)CNC(=O)[C@H](CCC(N)=O)NC(=O)C(C)(C)NC(=O)[C@@H](N)Cc1c[nH]cn1)[C@@H](C)O)[C@@H](C)O)C(C)C)[C@@H](C)O)C(C)C)C(=O)N[C@@H](CC(C)C)C(=O)N[C@@H](CCC(=O)O)C(=O)NC(C)(C)C(=O)NCC(=O)O [Peptide 445] (H-H[Aib]QGTFTSDVSK[αMeF]LETK([AEEA-AEEA-γGlu-C18 diacid])RARDFVQWLLE[Aib]G-OH; N-terminus assumed),41.0

# Same assay, conditions: Table 8; % GLP-1R activity relative to GLP-1 / % GlucR activity relative to glucagon
row,Compound,% Relative Potency Ratio
1,CC[C@H](C)[C@H](NC(=O)[C@H](Cc1c[nH]c2ccccc12)NC(=O)[C@H](CCCCNC(=O)COCCOCCNC(=O)COCCOCCNC(=O)CC[C@H](NC(=O)CCCCCCCCCCCCCCCCC(=O)O)C(=O)O)NC(=O)[C@@H](NC(=O)[C@H](Cc1ccccc1)NC(=O)[C@H](CC(=O)O)NC(=O)[C@H](CCC(N)=O)NC(=O)[C@H](C)NC(=O)[C@H](C)NC(=O)[C@H](CCC(N)=O)NC(=O)[C@H](CO)NC(=O)[C@H](CC(=O)O)NC(=O)[C@H](CC(C)C)NC(=O)[C@](C)(Cc1ccccc1)NC(=O)[C@H](CCCCN)NC(=O)[C@H](CO)NC(=O)[C@@H](NC(=O)[C@H](CC(=O)O)NC(=O)[C@H](CO)NC(=O)[C@@H](NC(=O)[C@](C)(Cc1ccccc1)NC(=O)[C@H](CO)NC(=O)CNC(=O)[C@@H](NC(=O)C(C)(C)NC(=O)[C@@H](N)Cc1c[nH]cn1)[C@@H](C)CC)[C@@H](C)O)C(C)C)C(C)C)C(=O)N[C@@H](C)C(=O)N[C@@H](CC(N)=O)C(=O)N[C@H](C(N)=O)[C@@H](C)O [Peptide 358] (H-H[Aib]IGS[αMeF]TSDVSK[αMeF]LDSQAAQDFVK([AEEA-AEEA-γGlu-C18 diacid])WIANT-NH2; N-terminus assumed),424.1
2,CC[C@H](C)[C@H](NC(=O)[C@H](Cc1c[nH]c2ccccc12)NC(=O)[C@H](CCCCNC(=O)COCCOCCNC(=O)COCCOCCNC(=O)CC[C@H](NC(=O)CCCCCCCCCCCCCCCCC(=O)O)C(=O)O)NC(=O)[C@@H](NC(=O)[C@H](Cc1ccccc1)NC(=O)[C@H](CC(=O)O)NC(=O)[C@H](CCC(N)=O)NC(=O)[C@H](C)NC(=O)[C@H](C)NC(=O)[C@H](CCC(N)=O)NC(=O)[C@H](CO)NC(=O)[C@H](CC(=O)O)NC(=O)[C@H](CC(C)C)NC(=O)[C@](C)(Cc1ccccc1)NC(=O)[C@H](CCCCN)NC(=O)[C@H](CO)NC(=O)[C@@H](NC(=O)[C@H](CC(=O)O)NC(=O)[C@H](CO)NC(=O)[C@@H](NC(=O)[C@](C)(Cc1ccccc1)NC(=O)[C@H](CO)NC(=O)CNC(=O)[C@H](Cc1c[nH]cn1)NC(=O)C(C)(C)NC(=O)[C@@H](N)Cc1c[nH]cn1)[C@@H](C)O)C(C)C)C(C)C)C(=O)N[C@@H](C)C(=O)N[C@@H](CC(N)=O)C(=O)N[C@H](C(=O)NCC(=O)NCC(N)=O)[C@@H](C)O [Peptide 350] (H-H[Aib]HGS[αMeF]TSDVSK[αMeF]LDSQAAQDFVK([AEEA-AEEA-γGlu-C18 diacid])WIANTGG-NH2; N-terminus assumed),8.6
3,CC[C@H](C)[C@H](NC(=O)C(C)(C)NC(=O)[C@H](CCCCNC(=O)COCCOCCNC(=O)COCCOCCNC(=O)CC[C@H](NC(=O)CCCCCCCCCCCCCCCCC(=O)O)C(=O)O)NC(=O)[C@@H](NC(=O)[C@H](Cc1ccccc1)NC(=O)[C@H](CC(=O)O)NC(=O)[C@H](CCC(N)=O)NC(=O)[C@H](C)NC(=O)[C@H](C)NC(=O)[C@H](CCCNC(=N)N)NC(=O)[C@H](CO)NC(=O)[C@H](CC(=O)O)NC(=O)[C@H](CC(C)C)NC(=O)[C@](C)(Cc1ccccc1)NC(=O)[C@H](CCCCN)NC(=O)[C@H](CO)NC(=O)[C@@H](NC(=O)[C@H](CC(=O)O)NC(=O)[C@H](CO)NC(=O)[C@@H](NC(=O)[C@](C)(Cc1ccccc1)NC(=O)[C@H](CO)NC(=O)CNC(=O)[C@H](Cc1c[nH]cn1)NC(=O)C(C)(C)NC(=O)[C@@H](N)Cc1c[nH]cn1)[C@@H](C)O)C(C)C)C(C)C)C(=O)N[C@@H](C)C(=O)N[C@@H](CC(N)=O)C(=O)N[C@H](C(N)=O)[C@@H](C)O [Peptide 366] (H-H[Aib]HGS[αMeF]TSDVSK[αMeF]LDSRAAQDFVK([AEEA-AEEA-γGlu-C18 diacid])[Aib]IANT-NH2; N-terminus assumed),1.7
4,CC[C@H](C)[C@H](NC(=O)[C@H](Cc1c[nH]c2ccccc12)NC(=O)[C@H](CCCCNC(=O)COCCOCCNC(=O)COCCOCCNC(=O)CC[C@H](NC(=O)CC[C@H](NC(=O)CCCCCCCCCCCCCCCCCCC(=O)O)C(=O)O)C(=O)O)NC(=O)[C@@H](NC(=O)[C@](C)(Cc1ccccc1)NC(=O)[C@H](CC(=O)O)NC(=O)[C@H](CCC(N)=O)NC(=O)[C@H](C)NC(=O)[C@H](C)NC(=O)[C@H](CCCNC(=N)N)NC(=O)[C@H](CO)NC(=O)[C@H](CC(=O)O)NC(=O)[C@H](CC(C)C)NC(=O)[C@](C)(Cc1ccccc1)NC(=O)[C@H](CCCCN)NC(=O)[C@H](CO)NC(=O)[C@@H](NC(=O)[C@H](CC(=O)O)NC(=O)[C@H](CO)NC(=O)[C@@H](NC(=O)[C@](C)(Cc1ccccc1)NC(=O)[C@H](CO)NC(=O)CNC(=O)[C@H](Cc1c[nH]cn1)NC(=O)C(C)(C)NC(=O)[C@@H](N)Cc1c[nH]cn1)[C@@H](C)O)C(C)C)C(C)C)C(=O)N[C@@H](C)C(=O)N[C@@H](CC(N)=O)C(=O)N[C@H](C(N)=O)[C@@H](C)O [Peptide 374] (H-H[Aib]HGS[αMeF]TSDVSK[αMeF]LDSRAAQD[αMeF]VK([AEEA-AEEA-γGlu-γGlu-C20 diacid])WIANT-NH2; N-terminus assumed),1.2
5,CC[C@H](C)[C@H](NC(=O)[C@H](Cc1c[nH]c2ccccc12)NC(=O)[C@H](CCCCNC(=O)COCCOCCNC(=O)COCCOCCNC(=O)CC[C@H](NC(=O)CCCCCCCCCCCCCCCCC(=O)O)C(=O)O)NC(=O)[C@@H](NC(=O)[C@H](Cc1ccccc1)NC(=O)[C@H](CC(=O)O)NC(=O)[C@H](CCC(N)=O)NC(=O)[C@H](C)NC(=O)[C@H](C)NC(=O)[C@H](CCC(N)=O)NC(=O)[C@H](CO)NC(=O)[C@H](CC(=O)O)NC(=O)[C@H](CC(C)C)NC(=O)[C@](C)(Cc1ccccc1)NC(=O)[C@H](CCCCN)NC(=O)[C@H](CO)NC(=O)[C@@H](NC(=O)[C@H](CC(=O)O)NC(=O)[C@H](CO)NC(=O)[C@@H](NC(=O)[C@](C)(Cc1ccccc1)NC(=O)[C@H](CO)NC(=O)CNC(=O)[C@H](CCC(N)=O)NC(=O)C(C)(C)NC(=O)[C@@H](N)Cc1c[nH]cn1)[C@@H](C)O)C(C)C)C(C)C)C(=O)N[C@@H](C)C(=O)N[C@@H](CC(N)=O)C(=O)N[C@H](C(N)=O)[C@@H](C)O [Peptide 348] (H-H[Aib]QGS[αMeF]TSDVSK[αMeF]LDSQAAQDFVK([AEEA-AEEA-γGlu-C18 diacid])WIANT-NH2; N-terminus assumed),116.0
6,CC[C@H](C)[C@H](NC(=O)[C@H](Cc1c[nH]c2ccccc12)NC(=O)[C@H](CCCCNC(=O)CC[C@H](NC(=O)CCCCCCCCCCCCCCCCCCC(=O)O)C(=O)O)NC(=O)[C@@H](NC(=O)[C@H](Cc1ccccc1)NC(=O)[C@H](CC(=O)O)NC(=O)[C@H](CCC(N)=O)NC(=O)[C@H](C)NC(=O)[C@H](C)NC(=O)[C@H](CCC(N)=O)NC(=O)[C@H](CO)NC(=O)[C@H](CC(=O)O)NC(=O)[C@H](CC(C)C)NC(=O)[C@](C)(Cc1ccccc1)NC(=O)[C@H](CCCCN)NC(=O)[C@H](CO)NC(=O)[C@@H](NC(=O)[C@H](CC(=O)O)NC(=O)[C@H](CO)NC(=O)[C@@H](NC(=O)[C@](C)(Cc1ccccc1)NC(=O)[C@H](CO)NC(=O)CNC(=O)[C@H](Cc1c[nH]cn1)NC(=O)C(C)(C)NC(=O)[C@@H](N)Cc1c[nH]cn1)[C@@H](C)O)C(C)C)C(C)C)C(=O)N[C@@H](C)C(=O)N[C@@H](CC(N)=O)C(=O)N[C@H](C(N)=O)[C@@H](C)O [Peptide 354],1.6
7,CC[C@H](C)[C@H](NC(=O)[C@H](Cc1c[nH]c2ccccc12)NC(=O)[C@H](CCCCNC(=O)CC[C@H](NC(=O)CCCCCCCCCCCCCCCCCCC(=O)O)C(=O)O)NC(=O)[C@@H](NC(=O)[C@H](Cc1ccccc1)NC(=O)[C@H](CC(=O)O)NC(=O)[C@H](CCC(N)=O)NC(=O)[C@H](C)NC(=O)[C@H](C)NC(=O)[C@H](CCC(N)=O)NC(=O)[C@H](CO)NC(=O)[C@H](CC(=O)O)NC(=O)[C@H](CC(C)C)NC(=O)[C@](C)(Cc1ccccc1)NC(=O)[C@H](CCCCN)NC(=O)[C@H](CO)NC(=O)[C@@H](NC(=O)[C@H](CC(=O)O)NC(=O)[C@H](CO)NC(=O)[C@@H](NC(=O)[C@H](Cc1ccccc1)NC(=O)[C@@H](NC(=O)CNC(=O)[C@H](Cc1c[nH]cn1)NC(=O)C(C)(C)NC(=O)[C@@H](N)Cc1c[nH]cn1)[C@@H](C)O)[C@@H](C)O)C(C)C)C(C)C)C(=O)N[C@@H](C)C(=O)N[C@@H](CC(N)=O)C(=O)N[C@H](C(N)=O)[C@@H](C)O [Peptide 347],0.2

# Same assay, conditions: Table 9; % GLP-1R activity relative to GLP-1 / % GlucR activity relative to glucagon
row,Compound,% Relative Potency Ratio
1,HSQGS(αMePhe)TSDK((PEG)2-(PEG)2-γE-γE-Stearoyl)10SK(Dip)LDS(ß-dimethylArg)AAQD(αMePhe)VE(Aib)LANT-amide [Peptide 393],9.3

# — US12630600B2 (MEDIMMUNE LIMITED, priority 2022, dated 2026)
